Measured values from ChEMBL document CHEMBL5385929, “Tabersonine Enhances Olaparib Sensitivity through FHL1-Mediated Epithelial-Mesenchymal Transition in an Ovarian Tumor” (J Nat Prod, 2024).
Calls of active or inactive are those of the source. No cut-off for these calls is given here.

Key:
SK-OV-3 [1] = assay: Potentiation of olaparib sensitivity in human SK-OV-3 cells transfected with shFHL1-2 RNA assessed as inhibition of cell invasion at 10 uM measured after 48 hrs in presence of olaparib by Transwell assay; assay type: functional, cell-based
A2780 [2] = assay: Potentiation of olaparib sensitivity in human A2780 cells transfected with shFLH1-2 RNA assessed as downregulation of EMT signaling by measuring E-cadherin protein expression at 10 uM in presence of olaparib by western blot analysis; assay type: functional, cell-based
A2780 [3] = assay: Potentiation of olaparib sensitivity in human A2780 cells transfected with shFLH1-1 RNA assessed as downregulation of EMT signaling by measuring N-cadherin protein expression at 10 uM in presence of olaparib by western blot analysis; assay type: functional, cell-based
Mus musculus [4] = assay: Potentiation of olaparib sensitivity in BALB/c mouse xenografted with shFHL1-1 RNA-transfected human A2780 cells assessed as increase in FHL1 protein expression in tumor at 15 mg/kg, ip co-administered with olaparib for 2 weeks by immunohistochemistry; assay type: functional, organism-based
A2780 [5] = assay: Downregulation of EMT signalling in human A2780 cells assessed as downregulation of N-cadherin protein expression at 10 uM by western blot analysis; assay type: functional, cell-based
A2780 [6] = assay: Upregulation of FHL1 protein expression in human A2780 cells by western blot analysis; assay type: functional, cell-based; details: dose 5-20 µM
SK-OV-3 [7] = assay: Potentiation of olaparib sensitivity in human SK-OV-3 cells transfected with shFHL1-2 RNA assessed as inhibition of cell migration at 10 uM measured after 24 to 48 hrs in presence of olaparib by wound healing assay; assay type: functional, cell-based; details: time 24-48 hrs
[8] = Toxicity in BALB/c mouse xenografted with human A2780 cells assessed as decrease in body weight at 30 mg/kg, ip administered every other day and measured on day 6; assay type: organism-based; details: in vivo, 144 h, time 6 day
SK-OV-3 [9] = assay: Upregulation of FHL1 protein expression in human SK-OV-3 cells by western blot analysis; assay type: functional, cell-based; details: dose 5-20 µM
A2780 [10] = assay: Potentiation of olaparib sensitivity in human A2780 cells assessed as inhibition of cell migration at 10 uM measured after 24 to 48 hrs in presence of olaparib by wound healing assay; assay type: functional, cell-based; details: time 24-48 hrs
SK-OV-3 [11] = assay: Potentiation of olaparib sensitivity in human SK-OV-3 cells assessed as inhibition of cell viability at 10 uM measured after 5 days in presence of olaparib by CCK8 assay; assay type: functional, cell-based; details: time 5.0 day
SK-OV-3 [12] = assay: Potentiation of olaparib sensitivity in human SK-OV-3 cells transfected with shFLH1-1 RNA assessed as downregulation of EMT signaling by measuring E-cadherin protein expression at 10 uM in presence of olaparib by western blot analysis; assay type: functional, cell-based
A2780 [13] = assay: Effect on FHL1 mRNA expression in human A2780 cells at 5 to 20 uM by real-time PCR analysis; assay type: functional, cell-based; details: dose 5-20 µM
SK-OV-3 [14] = assay: Downregulation of EMT signalling in human SK-OV-3 cells transfected with shFHL1-2 RNA assessed as N-cadherin protein expression at 10 uM by western blot analysis; assay type: functional, cell-based
SK-OV-3 [15] = assay: Synergistic antiproliferative activity against human SK-OV-3 cells assessed as combination index for reduction of cell viability in presence of olaparib by CCK8 assay; assay type: functional
SK-OV-3 [16] = assay: Downregulation of EMT signalling in human SK-OV-3 cells transfected with shFHL1-1 RNA assessed as E-cadherin protein expression at 10 uM by western blot analysis; assay type: functional, cell-based
SK-OV-3 [17] = assay: Downregulation of EMT signalling in human SK-OV-3 cells assessed as upregulation of E-cadherin protein expression at 10 uM by western blot analysis; assay type: functional, cell-based
SK-OV-3 [18] = assay: Potentiation of olaparib sensitivity in human SK-OV-3 cells assessed as downregulation of EMT signaling by measuring downregulation of N-cadherin protein expression at 10 uM in presence of olaparib by western blot analysis; assay type: functional, cell-based
A2780 [19] = assay: Potentiation of olaparib sensitivity in human A2780 cells assessed as induction of DNA damage response by measuring increase in tail moment at 10 uM measured after 48 hrs in presence of olaparib by alkaline comet assay; assay type: functional, cell-based
[20] = Toxicity in BALB/c mouse xenografted with human A2780 cells assessed as effect on body weight at 15 mg/kg, ip co-administered with olaparib for 2 weeks; assay type: organism-based; details: in vivo, 336 h
A2780 [21] = assay: Inhibition of cell invasion in human A2780 cells at 10 uM measured after 48 hrs by Transwell assay; assay type: functional, cell-based
Mus musculus [22] = assay: Potentiation of olaparib sensitivity in BALB/c mouse xenografted with shNC RNA-transfected human A2780 cells assessed as increase in FHL1 protein expression in tumor at 15 mg/kg, ip co-administered with olaparib for 2 weeks by immunohistochemistry; assay type: functional, organism-based
A2780 [23] = assay: Potentiation of olaparib-induced antitumor activity against shNC RNA-transfected human A2780 cells xenografted in BALB/c mouse assessed as decrease in tumor weight at 15 mg/kg, ip co-administered with olaparib for 2 weeks; assay type: functional, organism-based
A2780 [24] = assay: Potentiation of olaparib sensitivity in human A2780 cells assessed as downregulation of EMT signaling by measuring downregulation of N-cadherin protein expression at 10 uM in presence of olaparib by western blot analysis; assay type: functional, cell-based
SK-OV-3 [25] = assay: Potentiation of olaparib sensitivity in human SK-OV-3 cells assessed as downregulation of EMT signaling by measuring downregulation of vimentin protein expression at 10 uM in presence of olaparib by western blot analysis; assay type: functional, cell-based
SK-OV-3 [26] = assay: Downregulation of EMT signalling in human SK-OV-3 cells transfected with shFHL1-1 RNA assessed as N-cadherin protein expression at 10 uM by western blot analysis; assay type: functional, cell-based
Mus musculus [27] = assay: Potentiation of olaparib sensitivity in BALB/c mouse xenografted with shNC RNA-transfected human A2780 cells assessed as downregulation of vimentin protein expression in tumor at 15 mg/kg, ip co-administered with olaparib for 2 weeks by western blot analysis; assay type: functional, organism-based
SK-OV-3 [28] = assay: Potentiation of olaparib sensitivity in human SK-OV-3 cells transfected with shFLH1-2 RNA assessed as downregulation of EMT signaling by measuring N-cadherin protein expression at 10 uM in presence of olaparib by western blot analysis; assay type: functional, cell-based
SK-OV-3 [29] = assay: Antiproliferative activity against human SK-OV-3 cells assessed as inhibition of cell viability measured after 48 hrs by CCK8 assay; assay type: functional, cell-based; details: SK-OV-3, 48 h
A2780 [30] = assay: Potentiation of olaparib-induced antitumor activity against shNC RNA-transfected human A2780 cells xenografted in BALB/c mouse assessed as decrease in tumor volume at 15 mg/kg, ip co-administered with olaparib for 2 weeks; assay type: functional, organism-based
A2780 [31] = assay: Potentiation of olaparib sensitivity in human A2780 cells transfected with shFHL1-1 RNA assessed as inhibition of cell migration at 10 uM measured after 24 to 48 hrs in presence of olaparib by wound healing assay; assay type: functional, cell-based; details: time 24-48 hrs
A2780 [32] = assay: Potentiation of olaparib sensitivity in human A2780 cells assessed as inhibition of cell viability at 10 uM measured after 5 days in presence of olaparib by CCK8 assay; assay type: functional, cell-based; details: time 5.0 day
SK-OV-3 [33] = assay: Downregulation of EMT signalling in human SK-OV-3 cells transfected with shFHL1-2 RNA assessed as E-cadherin protein expression at 10 uM by western blot analysis; assay type: functional, cell-based

With `CC[C@]12C=CCN3CC[C@]4(C(=C(C(=O)OC)C1)Nc1ccccc14)[C@@H]32` [TABERSONINE] the Activity (SK-OV-3 [1]) was “inactive”, the Activity (A2780 [2]) was “inactive” and the Activity (A2780 [3]) was “inactive”. The Activity (Mus musculus [4]) was “inactive”, the inhibition (A2780 [5]) was “Active” and the Activity (A2780 [6]) was “Dose-Dependent Effect”. For the same compound, the Activity (SK-OV-3 [7]) was “inactive”, the Activity [8] was “Toxic” and the Activity (SK-OV-3 [9]) was “Dose-Dependent Effect”. For the same compound, the Activity (A2780 [10]) was “Active”, the Activity (SK-OV-3 [11]) was “Active” and the Activity (SK-OV-3 [12]) was “inactive”. For the same compound, the Activity (A2780 [13]) was “inactive”, the inhibition (SK-OV-3 [14]) was “inactive” and the CI (SK-OV-3 [15]) was less than 1. For the same compound, the inhibition (SK-OV-3 [16]) was “inactive”, the inhibition (SK-OV-3 [17]) was “Active” and the Activity (SK-OV-3 [18]) was “Active”. The Activity (A2780 [19]) was “Active”, the Activity [20] was “Non-Toxic” and the inhibition (A2780 [21]) was “Active”. For the same compound, the Activity (Mus musculus [22]) was “Active”, the Activity (A2780 [23]) was “Active” and the Activity (A2780 [24]) was “Active”. The Activity (SK-OV-3 [25]) was “Active”, the inhibition (SK-OV-3 [26]) was “inactive” and the Activity (Mus musculus [27]) was “Active”. The Activity (SK-OV-3 [28]) was “inactive”, the IC50 (SK-OV-3 [29]) was 25 µM and the Activity (A2780 [30]) was “Active”. The Activity (A2780 [31]) was “inactive”, the Activity (A2780 [32]) was “Active” and the inhibition (SK-OV-3 [33]) was “inactive”.
